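Growth conditions: 96-well plates. Treatment: test compound, 48 hours, 5 concentrations. Analysis: linear interpolation between bracketing concentrations; unreached endpoints set to highest concentration. Abbreviation: GI50, concentration required for 50% inhibition of growth.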 Calls of active or inactive are those of the source. Cut-off read from the data, not from the text of the source: active = GI50 up to about 1.1 µM and inactive = higher.
How the values were obtained:
Assay in all cases: NCI tumour cell line growth inhibition, 48 h
[1] = system: ACHN
[2] = system: EKVX
[3] = system: HOP-92
[4] = system: K562
[5] = system: KM12
[6] = system: LOX IMVI
[7] = system: MDA-N
[8] = system: NCI/ADR-RES
[9] = system: OVCAR-3
[10] = system: PC-3
[11] = system: SF-268
[12] = system: SF-295
[13] = system: SF-539
[14] = system: SNB-19
[15] = system: SR
[16] = system: U-251
[17] = system: UACC-62
[18] = system: UO-31
[19] = system: Hs-578T
[20] = system: SK-OV-3

Measured: GI50

Cc1ccc(/N=N/N(C)C(=O)C(C)N)cc1 (centres undefined)
inactive: [1] > 100 µM | [2] > 100 µM | [3] > 100 µM | [4] > 100 µM | [5] > 100 µM | [6] > 100 µM | [7] > 100 µM | [8] > 100 µM | [9] > 100 µM | [10] > 100 µM | [11] > 100 µM | [12] > 100 µM | [13] > 100 µM | [14] > 100 µM | [15] 26.9 µM | [16] > 100 µM | [17] > 100 µM | [18] 34.4 µM

CCCCc1ccc(Nc2nc(Cl)c3[nH]cnc3n2)cc1
inactive: [1] 20.8 µM | [2] 33.8 µM | [3] 11.6 µM | [19] 24.5 µM | [4] 32.7 µM | [5] 17.1 µM | [6] 13.7 µM | [7] 21.9 µM | [8] 19.3 µM | [9] 14.8 µM | [11] 22 µM | [12] 17.7 µM | [13] 18.7 µM | [20] 34.3 µM | [14] 19.1 µM | [15] 47.8 µM | [17] 16.4 µM | [18] 23.8 µM

CC(C)(C)OC(=O)N1CCC23CCCC2C(=O)CC=C13 (centres undefined)
inactive: [1] > 100 µM | [2] > 100 µM | [3] 38.3 µM | [19] > 100 µM | [4] > 100 µM | [5] > 100 µM | [6] > 100 µM | [8] > 100 µM | [9] > 100 µM | [10] > 100 µM | [11] > 100 µM | [12] > 100 µM | [13] > 100 µM | [20] > 100 µM | [14] > 100 µM | [15] > 100 µM | [16] > 100 µM | [17] > 100 µM | [18] > 100 µM

COc1ccc(Nc2[nH]c(C(C)=O)c(N)c2C(=S)Nc2ccccc2)cc1
inactive: [1] 77.6 µM | [2] 99.8 µM | [3] > 100 µM | [19] 74 µM | [4] 45.9 µM | [5] 37.5 µM | [6] 32.1 µM | [7] 76.4 µM | [8] > 100 µM | [9] > 100 µM | [11] 29.6 µM | [12] 61.5 µM | [13] 73.1 µM | [20] > 100 µM | [14] 82.8 µM | [15] 33.7 µM | [16] 43.8 µM | [17] 25.9 µM | [18] 51.6 µM

O=C1/C(=N/c2ccc(Nc3ccccc3)cc2)Oc2ccccc21
inactive: [1] 3.18 µM | [2] 5.31 µM | [4] 2.93 µM | [5] 2.14 µM | [6] 2.34 µM | [7] 2.74 µM | [8] 1.9 µM | [9] 1.97 µM | [10] 2.81 µM | [11] 2.88 µM | [12] 3.35 µM | [13] 3.27 µM | [20] 5.98 µM | [14] 2.36 µM | [15] 2.15 µM | [16] 1.69 µM | [17] 3.28 µM | [18] 2.35 µM

O=C(NCCCCCCNC(=O)c1cccc2ccccc12)Nc1cccc2ccccc12
inactive: [1] > 100 µM | [2] > 100 µM | [3] > 100 µM | [19] > 100 µM | [4] > 100 µM | [5] > 100 µM | [6] > 100 µM | [7] > 100 µM | [8] > 100 µM | [9] > 100 µM | [10] > 100 µM | [11] > 100 µM | [12] > 100 µM | [13] > 100 µM | [14] > 100 µM | [16] > 100 µM | [17] > 100 µM | [18] 45.7 µM

COc1ccccc1/C=C1/Sc2scc(CC(=O)Nc3ccccc3)[n+]2C1=O
inactive: [1] 28.9 µM | [2] 30.9 µM | [3] 17 µM | [19] 40.6 µM | [5] 19.7 µM | [6] 39 µM | [7] 20.2 µM | [8] 19.8 µM | [9] 16.9 µM | [10] 26 µM | [11] 47.6 µM | [12] 32.9 µM | [13] 36.3 µM | [20] 27.5 µM | [14] 29.1 µM | [16] 33 µM | [17] 14.4 µM | [18] 17.9 µM

O=C(c1ccc(Cl)cc1Cl)N(C(=O)N1CCC(c2ccccc2)CC1)c1ccccc1
inactive: [1] > 100 µM | [2] 86.9 µM | [3] > 100 µM | [4] 34.4 µM | [5] > 100 µM | [6] > 100 µM | [8] > 100 µM | [9] > 100 µM | [10] 91.2 µM | [12] > 100 µM | [13] > 100 µM | [20] > 100 µM | [14] > 100 µM | [15] 24.3 µM | [16] > 100 µM | [17] 79.4 µM | [18] > 100 µM

COc1ccccc1C(O)(c1ccccc1)C(O)(c1ccccc1)c1ccccc1OC (centres undefined)
inactive: [1] > 100 µM | [2] > 100 µM | [3] 20.3 µM | [4] > 100 µM | [5] > 100 µM | [6] > 100 µM | [9] > 100 µM | [11] > 100 µM | [12] > 100 µM | [13] > 100 µM | [20] > 31.6 µM | [14] > 100 µM | [15] > 100 µM | [16] > 100 µM | [17] > 100 µM | [18] > 100 µM

O=C1CSC(c2c[nH]c3ccccc23)N1c1ccc(Cl)cc1 (centres undefined)
inactive: [1] > 100 µM | [2] 59.7 µM | [3] 2.85 µM | [19] > 100 µM | [4] > 100 µM | [5] > 100 µM | [7] > 100 µM | [8] > 100 µM | [9] > 100 µM | [11] > 100 µM | [12] > 100 µM | [13] > 100 µM | [20] > 100 µM | [14] > 100 µM | [16] > 100 µM | [17] > 100 µM | [18] > 100 µM

C[C@]12CC(c3ccccc3O1)C(C(N)=O)C(=O)N2 (some centres undefined)
inactive: [1] > 100 µM | [2] > 100 µM | [3] > 100 µM | [19] > 100 µM | [4] > 100 µM | [5] > 100 µM | [6] > 100 µM | [7] > 100 µM | [8] > 100 µM | [9] > 100 µM | [10] > 100 µM | [11] > 100 µM | [20] > 100 µM | [14] > 100 µM | [16] > 100 µM | [17] > 100 µM

— ChEMBL document CHEMBL1201862, “PubChem BioAssay data set” (2004)
